Side chains are listed from the residue outwards. Peptide text beside a SMILES is read from it. * marks the point of attachment. Dnp = O=[N+]([O-])c1ccc(*)c([N+](=O)[O-])c1; Ahx = NCCCCCC(=O)O
What was measured:
[1] = test system: anti-Lyb8.2-anti-DNP conjugate (compound 3) on BALB/c mouse spleen cells; assay: Binding of 111In-labeled probe to mouse spleen cells in the presence of conjugate; details: 111In-labeled tracer, BALB/c spleen cells 10^7 cells/ml, 37° C., 2 h, compound 3 at 3.10^-9 M
Description: (§1) In an Eppendorf plastic tube are incubated 100 μl of a cell suspension at 3.10^7 cells/ml of a human T-cell line (HPBALL) or of a human B lymphoma line (Namalwa) in phosphate buffered saline supplemented with 0.1% bovine serum albumin, 0.02% azide and 50 mM deoxyglucose, 100 μl of a solution of dual specificity conjugate, anti-CD5 (compound 1) or anti-CALLA (compound 2), at 0.5 μg/ml in the same buffer and 150 μl of radioiodinated compound 6 or compound 7. After 3 h at 4° C. or 37° C. with agitation, 100 μl of the resulting cell suspension are transferred into triplicate 0.4 ml plastic tubes containing 200 μl of a 1.2:1 mixture of dibutyl-phthalate and ethyl-hexyl-phthalate. After 30 sec centrifugation at 10,000 g, 50 μl of the supernatant are collected and counted, and the bottom of the tube, containing the cell pellet, is cut and counted. Results are then expressed as bound/free percentages.
Compound 4, and the monomeric analogue, compound 5, (0.2 nmol) have been labeled with 0.2 mCi of ^111 In chloride by incubation at room temperature in 0.1M citrate buffer for 30 min. […] After incubation of freshly isolated BALB/c mouse spleen cells (10^7 cells/ml) at 37° C. for 2 h in the presence of anti-Lyb8.2-anti-DNPconjugate (compound 3) at 3.10^-9 M, binding of the labeled compounds 4 and 5 was monitored as described in example 4. […]

[2] = test system: anti-CD5-anti-DNP dual specificity conjugate (compound 1; F(ab')2 clone BL1a coupled to anti-DNP Fab' clone U7-27) on HPBALL cells (human T-cell line); assay: Binding of radioiodinated probe to target cells in the presence of excess dual specificity conjugate; details: for Bound/free (%): compound 1 at 0.5 μg/ml present, 3 h; for Bound/free (%), SB = Specific Binding: excess conjugate present
Description: as §1
(§2) The experimental settings allow cross-controlled experiments, since HPBALL cells express the T-cell marker CD5, but not the tumor-associated antigen CALLA, whereas Namalwa cells express CALLA, but not CD5.

[3] = test system: anti-CALLA-anti-DNP dual specificity conjugate (compound 2) on Namalwa cells (human B lymphoma line); assay: as above; details: for Bound/free (%): compound 2 at 0.5 μg/ml present, 3 h; for Bound/free (%), SB = Specific Binding: excess conjugate present
Description: as §1, §2

[4] = test system: anti-CD5-anti-DNP dual specificity conjugate (compound 1) with Namalwa cells (human B lymphoma line); assay: as above; details: Namalwa cells (no CD5), compound 1 at 0.5 μg/ml present, 3 h
Description: as §1, §2

[5] = test system: anti-CALLA-anti-DNP dual specificity conjugate (compound 2; F(ab')2 clone ALB1 coupled to anti-DNP Fab' clone U7-27) with HPBALL cells (human T-cell line); assay: as above; details: HPBALL cells (no CALLA), compound 2 at 0.5 μg/ml present, 3 h
Description: as §1, §2

[6] = test system: anti-CD5-anti-DNP dual specificity conjugate (compound 1) on HPBALL cells (human T-cell line); assay: Binding of radioiodinated probe to target cells after washing the excess dual specificity conjugate; details: 37° C.; for Bound/free (%): compound 1 1 h then washed 3 times, tracer 2 h; for Bound/free (%), SB = Specific Binding: excess conjugate washed
Description: as §1
(§3) The experimental conditions are similar to that described above but the dual specificity conjugate is incubated first for 1 h, then the cells are washed 3 times and the tracer is added. The cells are then pelleted after another 2 h incubation. Results.

[7] = test system: anti-CALLA-anti-DNP dual specificity conjugate (compound 2) on Namalwa cells (human B lymphoma line); assay: as above; details: for Bound/free (%): compound 2 1 h then washed 3 times, tracer 2 h; for Bound/free (%), SB = Specific Binding: excess conjugate washed
Description: as §1, §3

[8] = test system: anti-CD5-anti-DNP dual specificity conjugate (compound 1) with Namalwa cells (human B lymphoma line); assay: as above; details: Namalwa cells (no CD5), compound 1 1 h then washed 3 times, tracer 2 h
Description: as §1, §3

[9] = test system: anti-CALLA-anti-DNP dual specificity conjugate (compound 2) with HPBALL cells (human T-cell line); assay: as above; details: HPBALL cells (no CALLA), compound 2 1 h then washed 3 times, tracer 2 h, 37° C.
Description: as §1, §3

| SMILES | bound/free [1] [%] | Bound/free (%) ([2]; 4° C.) | Bound/free (%) ([2]; 37° C.) | Bound/free (%), SB = Specific Binding ([2]; 4° C.) [%] | Bound/free (%), SB = Specific Binding ([2]; 37° C.) [%] | Bound/free (%) ([3]; 4° C.) | Bound/free (%) ([3]; 37° C.) | Bound/free (%), SB = Specific Binding ([3]; 4° C.) [%] | Bound/free (%), SB = Specific Binding ([3]; 37° C.) [%] | Bound/free (%) ([4]; 4° C.) | Bound/free (%) ([4]; 37° C.) | Bound/free (%) ([5]; 4° C.) | Bound/free (%) ([5]; 37° C.) | Bound/free (%) [6] [%] | Bound/free (%), SB = Specific Binding [6] [%] | Bound/free (%) ([7]; 4° C.) | Bound/free (%) ([7]; 37° C.) | Bound/free (%), SB = Specific Binding ([7]; 4° C.) [%] | Bound/free (%), SB = Specific Binding ([7]; 37° C.) [%] | Bound/free (%) ([8]; 4° C.) | further results |
| --- | --- | --- | --- | --- | --- | --- | --- | --- | --- | --- | --- | --- | --- | --- | --- | --- | --- | --- | --- | --- | --- |
| O=C(O)CN(CCN(CC(=O)O)CC(=O)N[C@@H](CCCCNc1ccc([N+](=O)[O-])cc1[N+](=O)[O-])C(=O)O)CCN(CC(=O)O)CC(=O)N[C@@H](CCCCNc1ccc([N+](=O)[O-])cc1[N+](=O)[O-])C(=O)O [compound 4, bis-(N-ε-(2,4-dinitrophenyl)-L-Lysyl)diethylenetriamine-pentaacetic acid] | 26 | – | – | – | – | – | – | – | – | – | – | – | – | – | – | – | – | – | – | – | – |
| O=C(O)CN(CCN(CC(=O)O)CC(=O)O)CCN(CC(=O)O)CC(=O)N[C@@H](CCCCNc1ccc([N+](=O)[O-])cc1[N+](=O)[O-])C(=O)O [compound 5, (N-ε-(2,4-dinitrophenyl)-L-Lysyl)-diethylenetriamine-pentaacetic acid] | 6 | – | – | – | – | – | – | – | – | – | – | – | – | – | – | – | – | – | – | – | – |
| O=C(CCCCCNc1ccc([N+](=O)[O-])cc1[N+](=O)[O-])NCCCC[C@H](NC(=O)[C@H](Cc1ccc(O)cc1)NC(=O)CCCCCNc1ccc([N+](=O)[O-])cc1[N+](=O)[O-])C(=O)O [compound 6, N-α-(2,4-dinitrophenyl-aminocaproyl)-L-tyrosyl-N-ε-(2,4-dinitrophenyl-aminocaproyl)-L-lysine] ({Dnp-Ahx}-Tyr-Lys([Ahx-Dnp])-OH) | – | 72 | 67 | 56 | 52 | 23 | 21 | 21 | 17 | 2 | 4 | 16 | 15 | 45 | 36 | 145 | 11 | 130 | 7 | 15 | Bound/free (%) ([8]; 37° C.): 4%; Bound/free (%) [9]: 9% |
| O=C(O)CNC(=O)[C@H](Cc1ccc(O)cc1)NC(=O)CCCCCNc1ccc([N+](=O)[O-])cc1[N+](=O)[O-] [compound 7, N-α-(2,4-dinitrophenyl-aminocaproyl)-L-tyrosyl-gylicine] | – | 38 | 12 | 35 | 9 | 6 | 5 | 4 | 4 | 2 | 1 | 3 | 3 | 11 | 7 | 50 | 4 | 42 | 2 | 8 | Bound/free (%) ([8]; 37° C.): 2%; Bound/free (%) [9]: 3% |

— patent publication US5256395A, “Affinity enhancement immunological reagents for in vivo detection and killing of specific target cells” (Immunotech Partners, priority 1986, dated 1993)
